In general, Ki refers to a dissociation constant, usually derived from enzyme kinetics or from competition with a known ligand. The low end stands for higher affinity, the high end for lower affinity.

In US9328138B2 (priority 2011, dated 2016) one finds Ki data, which are given here for 13 compounds.

For assay [1], the target named is HCV NS3 protease genotype 3a (3A-1) (Hepatitis C virus genotype 3a, UniProt Q81258). The assay can be described thus: HCV NS3 protease time-resolved fluorescence (TRF) assay, genotype 3a. It counts as biochemical. The settings on record: Ki 3a. Summed up: (§1)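 Assay buffer: 50 mM HEPES pH 7.5, 150 mM NaCl, 0.1% PEG 8000, 0.15% Triton X-100. Ten-minute enzyme–inhibitor preincubation; substrate at 25 nM final; 6 h reaction, room temperature; signal/background set at 5-20 by enzyme amount.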

Assay [2] deals with T1, HCV genotype 1b (BK) NS3 modified enzyme with a R155K mutation (Hepatitis C virus genotype 1b, UniProt P26663, R1181K).
T1 construct: HCV genotype 1b (BK) NS3 modified enzyme
Nature of the assay: HCV NS3 protease time-resolved fluorescence (TRF) assay, genotype 1b R155K. The settings on record: Ki 1b R155K, genotype 1b (BK) NS3 R155K; single value. It counts as biochemical. In a few lines: as §1

`C=C[C@@H]1C[C@]1(NC(=O)[C@@H]1C[C@@H]2CN1C(=O)[C@H](C1CCCC1)NC(=O)O[C@@H]1CCC[C@H]1CC/C=C/Cc1c(nc3ccccc3c1OCCN(C)C)O2)C(=O)NS(=O)(=O)C1CC1` [Example 82, (3aR,7S,10S,12R,21E,24aS)-7-cyclo pentyl-N-{(1R,2S)-1-[(cyclopropylsulfonyl)carbamoyl]-2-ethenylcyclopropyl}-19-[2-(dimethylamino)ethoxy]-5,8-dioxo-1,2,3,3a,5,6,7,8,11,12,20,23, 24,24a-tetradecahydro-10H-9,12-methanocyclopenta[18,19] [1,10,3,6]dioxadiazacyclononadecino [11,12-b]quinoline-10-carboxamide]: the inhibition constant (Ki) in assay [1] stood at 2.5 nM; in assay [2], 0.18 nM.

In the case of `C=C[C@@H]1C[C@]1(NC(=O)[C@@H]1C[C@@H]2CN1C(=O)[C@H](C(C)(C)C)NC(=O)O[C@@H]1CCC[C@H]1CC/C=C/Cc1c(nc3ccccc3c1OCCCN1CCCCC1)O2)C(=O)NS(=O)(=O)C1CC1` [Example 45, (3aR,7S,10S,12R,21E,24aS)-7-tert-butyl-N-{(1R,2S)-1-[(cyclopropylsulfonyl)carbamoyl]-2-ethenylcyclopropyl}-5,8-dioxo-19-[3-(piperidin-1-yl)propoxy]-1,2,3,3a,5,6,7,8,11, 12,20,23,24,24a-tetradecahydro-10H-9,12-methanocyclopenta[18,19][1,10,3,6]dioxa diazacyclononadecino[11,12-b]quinoline-10-carboxamide], the results for the Ki in assay [1] and in assay [2] were 0.5 nM and 0.1 nM, respectively.

In the case of `C=C[C@@H]1C[C@]1(NC(=O)[C@@H]1C[C@@H]2CN1C(=O)[C@H](C1CCCC1)NC(=O)O[C@@H]1CCC[C@H]1CC/C=C/Cc1c(nc3ccccc3c1OCC(=O)N1CCCC1)O2)C(=O)NS(=O)(=O)C1CC1` [Example 67, (3aR,7S,10S,12R,21E,24aS)-7-cyclopentyl-N-{(1R,2S)-1-[(cyclopropylsulfonyl)carbamoyl]-2-ethenylcyclopropyl}-5,8-dioxo-19-[2-oxo-2-(pyrrolidin-1-yl)ethoxy]-1,2,3,3a,5,6,7,8,11,12,20,23,24,24a-tetradecahydro-10H-9,12-methanocyclopenta[18,19][1,10,3,6]dioxadiazacyclononadecino[11,12-b]quinoline-10-carboxamide], the values for the Ki in assay [1] and in assay [2] were 6.6 nM and 0.081 nM, respectively.

Turning to `CC1(S(=O)(=O)NC(=O)[C@@]23C[C@H]2/C=C\CCCCC[C@@H]2NC(=O)O[C@@H]4C[C@H]4CCC/C=C/c4c(nc5ccccc5c4OCCN4CCOCC4)O[C@@H]4C[C@@H](C(=O)N3)N(C4)C2=O)CC1` [Example 297, (1aR,5S,11Z,12aS,13aR,16S,19R,27E, 31aR)-N-[(1-methylcyclopropyl)sulfonyl]-26-[2-(morpholin-4-yl)ethoxy]-3,15,33-trioxo-1,1a,3,4,5,6,7,8,9,10,12a,13,15,16,18,19,29, 30,31,31a-icosahydro-5,17:16,19-dimethanodicyclopropa[12,13:28,29][1,20,3, 14,17]dioxatriazacyclononacosino[21,22-b]quinoline-13a(14H)-carboxamide], the Ki was 4.3 nM in assay [1] and 0.27 nM in assay [2].

Regarding `C=C[C@@H]1C[C@]1(NC(=O)[C@@H]1C[C@@H]2CN1C(=O)[C@H](C1(C)CCCCC1)NC(=O)O[C@@H]1C[C@H]1CCCCCc1c(nc3ccccc3c1OCCN1CCOCC1)O2)C(=O)NS(=O)(=O)C1(C)CC1` [Example 123, (1aR,5S,8S,10R,22aR)-N-[(1R,2S)-2-ethenyl-1-{[(1-methylcyclopropyl)sulfonyl]carbamoyl}cyclopropyl]-5-(1-methylcyclohexyl)-17-[2-(morpholin-4-yl)ethoxy]-3,6-dioxo-1,1a,3,4,5,6,9,10,18,19,20,21,22,22a-tetradecahydro-8H-7,10-methanocyclopropa[18,19] [1,10,3,6]dioxadiazacyclononadecino [11,12-b]quinoline-8-carboxamide], the values for the Ki in assay [1] and in assay [2] were 6.1 nM and 0.49 nM, respectively.

Take `CC1(S(=O)(=O)NC(=O)[C@@]23C[C@H]2/C=C\CCCCC[C@@H]2NC(=O)O[C@@H]4C[C@H]4CCC/C=C/c4c(nc5ccccc5c4OCCCN4CCCC4)O[C@@H]4C[C@@H](C(=O)N3)N(C4)C2=O)CC1` [Example 303, (1aR,5S,11Z,12aS,13aR,16S,19R,27E, 31aR)-N-[(1-methylcyclopropyl)sulfonyl]-3,15,33-trioxo-26-[3-(pyrrolidin-1-yl)propoxy]-1,1a,3,4,5,6,7,8,9,10,12a,13,15,16,18, 19,29,30,31,31a-icosahydro-5,17:16,19-dimethanodicyclopropa[12,13:28,29] [1,20,3,14,17] dioxatriazacyclononacosino[21,22-b]quinoline-13a(14H)-carboxamide]: the results for the inhibitory constant (Ki) in assay [1] and in assay [2] were 3.6 nM and 0.28 nM, respectively.

On to `C=C[C@@H]1C[C@]1(NC(=O)[C@@H]1C[C@@H]2CN1C(=O)[C@H](C(C)(C)C)NC(=O)O[C@@H]1C[C@H]1CCCCCc1c(nc3ccccc3c1OCCCN1CCCCC1c1nc3cc(F)ccc3[nH]1)O2)C(=O)NS(=O)(=O)C1(C)CC1` (stereo partly drawn) [Example 203, (1aR,5S,8S,10R,22aR)-5-tert-butyl-N-[(1R,2S)-2-ethenyl-1-{[(1-methylcyclopropyl)sulfonyl]carbamoyl}cyclopropyl]-17-{3-[2-(5-fluoro-1H-benzimidazol-2-yl)piperidin-1-yl]propoxy}-3,6-dioxo-1,1a,3,4,5,6,9,10,18,19,20, 21,22,22a-tetradecahydro-8H-7,10-methanocyclopropa[18,19][1,10,3,6] dioxadiazacyclononadecino[11,12-b] quinoline-8-carboxamide], for which the results for the Ki in assay [1] and in assay [2] were 4.9 nM and 0.13 nM, respectively.

With `C=C[C@@H]1C[C@]1(NC(=O)[C@@H]1C[C@@H]2CN1C(=O)[C@H](C(C)(C)C)NC(=O)O[C@@H]1C[C@H]1CCCCCc1c(nc3c(F)cccc3c1OCCN1CCCCC1)O2)C(=O)NS(=O)(=O)C1(C)CC1` [Example 213, (1aR,5S,8S,10R,22aR)-5-tent-butyl-N-[(1R,2S)-2-ethenyl-1-{[(1-methylcyclopropyl)sulfonyl]carbamoyl}cyclopropyl]-13-fluoro-3,6-dioxo-17-[2-(piperidin-1-yl)ethoxy]-1,1a,3,4,5,6,9,10,18,19,20,21,22,22a-tetradecahydro-8H-7,10-methanocyclopropa[18,19][1,10,3,6] dioxadiazacyclononadecino[11,12-b]quinoline-8-carboxamide], the Ki in assay [1] stood at 3.8 nM; in assay [2] it was 0.36 nM.

Regarding `C=C[C@@H]1C[C@]1(NC(=O)[C@@H]1C[C@@H]2CN1C(=O)[C@H](C(C)(C)C)NC(=O)O[C@@H]1C[C@H]1CCCCCc1c(nc3ccccc3c1OCCN(C)c1ccccc1)O2)C(=O)NS(=O)(=O)C1(C)CC1` [Example 130, (1aR,5S,8S,10R,22aR)-5-tert-butyl-N-[(1R,2S)-2-ethenyl-1-{[(1-methylcyclopropyl)sulfonyl]carbamoyl}cyclopropyl]-17-{2-[methyl(phenyl)amino]ethoxy}-3,6-dioxo-1,1a,3,4,5,6,9,10,18,19, cyclopropa[18,19][1,10,3,6] dioxadiazacyclononadecino [11,12-b]quinoline-8-carboxamide], the Ki in assay [1] stood at 18 nM; in assay [2], 2.2 nM.

Regarding `C=C[C@@H]1C[C@]1(NC(=O)[C@@H]1C[C@@H]2CN1C(=O)[C@H](C(C)(C)C)NC(=O)O[C@@H]1CCC[C@H]1CC/C=C\Cc1c(nc3ccccc3c1OC)O2)C(=O)NS(=O)(=O)C1CC1` [Example 7, (3aR,7S,10S,12R,21Z,24aS)-7-tert-butyl-N-{(1R,2S)-1-[(cyclopropylsulfonyl)carbamoyl]-2-ethenylcyclopropyl}-19-methoxy-5,8-dioxo-1,2,3,3a,5,6,7,8,11,12,20,23,24,24a-tetradecahydro-10H-9,12-methanocyclopenta[18,19][1,10,3,6] dioxadiazacyclononadecino[11,12-b]quinoline-10-carboxamide], the Ki in assay [1] worked out at 17 nM; in assay [2] it was 0.76 nM.

As to `C=C[C@@H]1C[C@]1(NC(=O)[C@@H]1C[C@@H]2CN1C(=O)[C@H](C(C)(C)C)NC(=O)O[C@@H]1C[C@H]1CCCCCc1c(nc3cc(C)ccc3c1OCCCNC)O2)C(=O)NS(=O)(=O)C1(C)CC1` [Example 149, (1aR,5S,8S,10R,22aR)-5-tert-butyl-N-[(1R,2S)-2-ethenyl-1-{[(1-methylcyclopropyl)sulfonyl]carbamoyl}cyclopropyl]-14-methyl-17-[3-(methylamino)propoxy]-3,6-dioxo-1,1a,3,4,5,6,9,10,18,19, 20,21,22,22a-tetradecahydro-8H-7,10-methanocyclopropa[1,19] [1,10,3,6]dioxadiazacyclonona decino[11,12-b]quinoline-8-carboxamide], the Ki came to 0.74 nM in assay [1] and 0.041 nM in assay [2].

In the case of `C=C[C@@H]1C[C@]1(NC(=O)[C@@H]1C[C@@H]2CN1C(=O)[C@H](C(C)(C)C)NC(=O)O[C@@H]1C[C@H]1CCCCCc1c(nc3ccccc3c1OC)O2)C(=O)NS(=O)(=O)C1(C)CC1` [Example 119], the Ki worked out at 3.2 nM in assay [1] and 0.12 nM in assay [2].

For the compound `C=C[C@@H]1C[C@]1(NC(=O)[C@@H]1C[C@@H]2CN1C(=O)[C@H](C(C)(C)C)NC(=O)O[C@@H]1C[C@H]1CCCCCc1c(nc3ccccc3c1OCC1CCN(CC)CC1)O2)C(=O)NS(=O)(=O)C1(C)CC1` [Example 227, (1aR,5S,8S,10R,22aR)-5-tert-butyl-N-[(1R,2S)-2-ethenyl-1-{[(1-methylcyclopropyl)sulfonyl]carbamoyl}cyclopropyl]-17-[(1-ethylpiperidin-4-yl)methoxy]-3,6-dioxo-1,1a,3,4,5,6,9,10,18,19,20,21,22,22a-tetradecahydro-8H-7,10-methanocyclopropa[18,19][1,10,3,6] dioxadiazacyclononadecino[11,12-b]quinoline-8-carboxamide], the figures for the Ki in assay [1] and in assay [2] were 0.36 nM and 0.095 nM, respectively.
